Reference: PubChem BioAssay AID1963431 (Molecular Pharmacology Branch, DTP, NCI, 2024)
Where “and” joins values, the source holds several entries; their conditions need not be identical. Equal entries are not always repeated.

System: Rh18 complex spheroid viability, percent test/control
Assay: Anticancer human tumor Rh18 cell line growth inhibition [Asc];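 note: spheroids exposed to compound for 7 days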;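 for viability, T/C: 100% = DMSO vehicle control wells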
Details: for viability, T/C: stronger effect = lower value; active = viability on the fitted dose curve at most 10% of control; inactive = the rest
In short: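 Tumor cells were grown as multicellular spheroids with stromal HUVEC and mesenchymal stem cells and treated singly or in combination. Concentrations fell in half-log steps from the clinical Cmax, or from 10 microM where none was known.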

[1] = curve of first compound, second compound 0.03 µM
[2] = curve of first compound, second compound 0.0949 µM
[3] = curve of first compound, second compound 0.3 µM
[4] = curve of first compound, second compound 0.949 µM
[5] = curve of first compound, second compound 3 µM
[6] = second compound 0.03 µM, first compound 0.00316 µM
[7] = second compound 0.03 µM, first compound 0.01 µM
[8] = second compound 0.03 µM, first compound 0.0316 µM
[9] = second compound 0.03 µM, first compound 0.1 µM
[10] = second compound 0.03 µM, first compound 0.316 µM
[11] = second compound 0.03 µM, first compound 1 µM
[12] = second compound 0.0949 µM, first compound 0.00316 µM
[13] = second compound 0.0949 µM, first compound 0.01 µM
[14] = second compound 0.0949 µM, first compound 0.0316 µM
[15] = second compound 0.0949 µM, first compound 0.1 µM
[16] = second compound 0.0949 µM, first compound 0.316 µM
[17] = second compound 0.0949 µM, first compound 1 µM
[18] = second compound 0.3 µM, first compound 0.00316 µM
[19] = second compound 0.3 µM, first compound 0.01 µM
[20] = second compound 0.3 µM, first compound 0.0316 µM
[21] = second compound 0.3 µM, first compound 0.1 µM
[22] = second compound 0.3 µM, first compound 0.316 µM
[23] = second compound 0.3 µM, first compound 1 µM
[24] = second compound 0.949 µM, first compound 0.00316 µM
[25] = second compound 0.949 µM, first compound 0.01 µM
[26] = second compound 0.949 µM, first compound 0.0316 µM
[27] = second compound 0.949 µM, first compound 0.1 µM
[28] = second compound 0.949 µM, first compound 0.316 µM
[29] = second compound 0.949 µM, first compound 1 µM
[30] = second compound 3 µM, first compound 0.00316 µM
[31] = second compound 3 µM, first compound 0.01 µM
[32] = second compound 3 µM, first compound 0.0316 µM
[33] = second compound 3 µM, first compound 0.1 µM
[34] = second compound 3 µM, first compound 0.316 µM
[35] = second compound 3 µM, first compound 1 µM

COc1c(OCCCN2CCOCC2)ccc2c3n(c(=NC(=O)c4cnc(N)nc4)nc12)CCN3 + CCN1C(C(=O)NC23CCC(C(=O)O)(CC2)CC3)C(c2cccc(Cl)c2F)C2(C(=O)Nc3cc(Cl)ccc32)C12CCCCC2
< 3.16 nM: IC50 [1] | IC50 [2] | IC50 [3] | IC50 [4] | IC50 [5]
active: viability, T/C [9] 6.81% | viability, T/C [10] 3.01% | viability, T/C [11] 0.78% | viability, T/C [14] 9.67% | viability, T/C [15] 4.3% | viability, T/C [16] 1.95% | viability, T/C [17] 0.74% | viability, T/C [19] 11% | viability, T/C [20] 6.7% | viability, T/C [21] 3.81% | viability, T/C [22] 1.38% | viability, T/C [23] 0.96% | viability, T/C [25] 9.29% | viability, T/C [26] 5.17% | viability, T/C [27] 2.9% | viability, T/C [28] 1.19% | viability, T/C [29] 0.83% | viability, T/C [31] 8.55% | viability, T/C [32] 7.12% | viability, T/C [33] 3.01% | viability, T/C [34] 3.28% | viability, T/C [35] 1.16%
inactive: viability, T/C [6] 36.4% | viability, T/C [7] 27.2% | viability, T/C [8] 15.1% | viability, T/C [12] 17.8% | viability, T/C [13] 16.1% | viability, T/C [18] 11% | viability, T/C [24] 10.3% | viability, T/C [30] 10.2%

CNC(C)C(=O)NC1CN(S(=O)(=O)c2cccc(S(=O)(=O)N3CCC4CCC(C(=O)NC(c5ccccc5)c5ccccc5)N4C(=O)C(NC(=O)C(C)NC)C3)c2)CCC2CCC(C(=O)NC(c3ccccc3)c3ccccc3)N2C1=O (stereo not drawn)
inactive: viability, T/C (compound 0.00316 µM) 80.3% and 79.9% and 75.9%
21.6 nM and 33.4 nM: IC50 (curve of compound)
> 1000 nM: IC50 (compound alone, run of 11/15/2022)

CCN1CCN(Cc2ccc(Nc3ncc(F)c(-c4cc(F)c5nc(C)n(C(C)C)c5c4)n3)nc2)CC1 + CCN1C(C(=O)NC23CCC(C(=O)O)(CC2)CC3)C(c2cccc(Cl)c2F)C2(C(=O)Nc3cc(Cl)ccc32)C12CCCCC2
< 3.16 nM: IC50 [1] | IC50 [2] | IC50 [3] | IC50 [4] | IC50 [5]
inactive: viability, T/C [6] 42.9% | viability, T/C [7] 39.7% | viability, T/C [8] 41.4% | viability, T/C [9] 38.6% | viability, T/C [10] 46.5% | viability, T/C [11] 56.1% | viability, T/C [12] 25.2% | viability, T/C [13] 24.9% | viability, T/C [14] 26.3% | viability, T/C [15] 29.5% | viability, T/C [16] 34.6% | viability, T/C [17] 56.7% | viability, T/C [18] 11.7% | viability, T/C [19] 12.9% | viability, T/C [20] 14% | viability, T/C [21] 14.4% | viability, T/C [22] 14.2% | viability, T/C [23] 19.8% | viability, T/C [24] 9.3% | viability, T/C [25] 8.54% | viability, T/C [26] 10.2% | viability, T/C [27] 11.4% | viability, T/C [28] 10.6% | viability, T/C [29] 14.6%
active: viability, T/C [30] 8.98% | viability, T/C [31] 7.11% | viability, T/C [32] 8.3% | viability, T/C [33] 7.8% | viability, T/C [34] 8.59% | viability, T/C [35] 13.3%
